Test results from patent US9212182B2, “Bicyclic sulfonamide compounds as sodium channel inhibitors” (AMGEN INC., priority 2013, dated 2015).
Where two headings read alike, the source gives them in different places.

Molecular target: Nav 1.7 (Homo sapiens (Human), UniProt Q15858)
Test: in-vitro Nav 1.7 PX (IC50)
Format: cell-based

Nav 1.7, sequence (Q15858 whole entry): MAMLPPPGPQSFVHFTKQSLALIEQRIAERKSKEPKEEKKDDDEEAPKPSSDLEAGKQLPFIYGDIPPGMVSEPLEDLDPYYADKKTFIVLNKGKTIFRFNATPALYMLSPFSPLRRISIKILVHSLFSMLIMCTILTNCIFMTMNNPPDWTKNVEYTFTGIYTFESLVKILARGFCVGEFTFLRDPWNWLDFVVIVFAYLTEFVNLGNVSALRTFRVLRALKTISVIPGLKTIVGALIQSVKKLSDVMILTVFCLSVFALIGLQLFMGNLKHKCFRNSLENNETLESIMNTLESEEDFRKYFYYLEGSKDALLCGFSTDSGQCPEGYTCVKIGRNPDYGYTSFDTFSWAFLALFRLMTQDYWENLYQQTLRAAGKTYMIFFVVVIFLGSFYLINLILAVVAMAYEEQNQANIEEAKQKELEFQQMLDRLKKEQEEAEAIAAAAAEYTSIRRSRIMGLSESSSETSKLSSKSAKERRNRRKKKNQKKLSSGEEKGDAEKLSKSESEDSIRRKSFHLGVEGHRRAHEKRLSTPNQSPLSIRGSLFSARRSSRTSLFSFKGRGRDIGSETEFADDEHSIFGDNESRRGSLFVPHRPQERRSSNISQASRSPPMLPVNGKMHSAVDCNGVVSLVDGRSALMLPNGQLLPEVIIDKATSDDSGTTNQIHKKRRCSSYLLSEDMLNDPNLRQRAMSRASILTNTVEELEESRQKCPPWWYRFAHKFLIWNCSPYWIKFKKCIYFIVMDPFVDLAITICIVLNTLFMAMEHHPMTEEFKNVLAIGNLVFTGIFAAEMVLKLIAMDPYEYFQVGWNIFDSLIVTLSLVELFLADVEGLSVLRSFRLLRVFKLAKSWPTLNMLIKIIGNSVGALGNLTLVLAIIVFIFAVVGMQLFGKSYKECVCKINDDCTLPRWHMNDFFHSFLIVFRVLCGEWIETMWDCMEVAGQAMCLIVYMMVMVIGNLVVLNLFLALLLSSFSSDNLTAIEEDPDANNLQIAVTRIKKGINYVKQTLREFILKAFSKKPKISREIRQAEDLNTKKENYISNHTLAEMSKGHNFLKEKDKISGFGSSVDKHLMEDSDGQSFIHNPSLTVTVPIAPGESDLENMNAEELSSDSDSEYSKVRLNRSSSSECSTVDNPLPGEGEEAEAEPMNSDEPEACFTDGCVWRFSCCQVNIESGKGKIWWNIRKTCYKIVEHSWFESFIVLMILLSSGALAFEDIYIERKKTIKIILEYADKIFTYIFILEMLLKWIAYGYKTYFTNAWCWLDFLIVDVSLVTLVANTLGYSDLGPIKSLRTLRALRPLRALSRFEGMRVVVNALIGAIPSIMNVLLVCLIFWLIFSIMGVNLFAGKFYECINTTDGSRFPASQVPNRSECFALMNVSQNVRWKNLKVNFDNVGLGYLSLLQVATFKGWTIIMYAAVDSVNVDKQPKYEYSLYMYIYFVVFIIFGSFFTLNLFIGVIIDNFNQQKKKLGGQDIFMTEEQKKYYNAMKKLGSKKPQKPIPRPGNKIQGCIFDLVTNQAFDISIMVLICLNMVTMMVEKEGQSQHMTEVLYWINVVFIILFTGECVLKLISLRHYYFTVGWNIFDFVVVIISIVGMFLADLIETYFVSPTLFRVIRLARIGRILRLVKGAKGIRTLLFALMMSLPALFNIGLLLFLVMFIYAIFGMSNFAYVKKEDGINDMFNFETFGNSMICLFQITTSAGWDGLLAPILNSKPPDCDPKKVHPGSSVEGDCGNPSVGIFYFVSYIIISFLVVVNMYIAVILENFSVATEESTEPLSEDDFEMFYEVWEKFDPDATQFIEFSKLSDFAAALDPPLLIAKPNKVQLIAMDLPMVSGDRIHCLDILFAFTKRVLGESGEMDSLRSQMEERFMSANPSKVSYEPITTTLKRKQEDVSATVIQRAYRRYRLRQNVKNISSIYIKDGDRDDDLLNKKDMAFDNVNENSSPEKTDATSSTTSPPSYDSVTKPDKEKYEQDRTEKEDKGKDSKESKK

SMILES	IC50	IC50 (in-vitro Nav 1.7 PX data)	also measured
COc1ccc(-c2ccnn2C)cc1-n1c(=O)ccc2cc(S(=O)(=O)Nc3ccon3)ccc21 [Example 385, N-3-isoxazolyl-1-(2-methoxy-5-(1-methyl-1H-pyrazol-5-yl)phenyl)-2-oxo-1,2-dihydro-6-quinolinesulfonamide]	6230 nM		
COc1cc(-c2ccc(Cl)c(C)c2)c(F)cc1-n1c(=O)ccc2cc(S(=O)(=O)Nc3ncc(F)cn3)ccc21 (atropisomer, axis not shown; (P)) [Example 692, (P)-1-(4′-chloro-2-fluoro-5-methoxy-3′-methyl-4-biphenylyl)-N-(5-fluoro-2-pyrimidinyl)-2-oxo-1,2-dihydro-6-quinolinesulfonamide]		30 nM	
COc1cc(-c2cc(OC)c(-n3c(=O)ccc4cc(S(=O)(=O)Nc5cc(C)ncn5)ccc43)cc2F)ccc1F [Example 1009, 1-(2,4′-difluoro-3′,5-dimethoxy-4-biphenylyl)-N-(6-methyl-4-pyrimidinyl)-2-oxo-1,2-dihydro-6-quinolinesulfonamide]		151 nM	
COc1ccc(-c2cccc(C(F)(F)F)c2)cc1-n1c(=O)ccc2cc(S(=O)(=O)Nc3ccon3)ccc21 [Example 312, N-3-isoxazolyl-1-(4-methoxy-3′-(trifluoromethyl)-3-biphenylyl)-2-oxo-1,2-dihydro-6-quinolinesulfonamide]	22 nM		
COc1cc(-c2cccc(OC)c2C)ccc1-n1c(=O)ccc2cc(S(=O)(=O)Nc3ccon3)ccc21 [Example 787, 1-(3,3′-dimethoxy-2′-methyl-4-biphenylyl)-N-3-isoxazolyl-2-oxo-1,2-dihydro-6-quinolinesulfonamide]		52 nM	
COc1cc(-c2ccc(C(F)(F)F)cc2)c(F)cc1-n1c(=O)ccc2cc(S(=O)(=O)Nc3cccnn3)ccc21 [Example 795, 1-(2-fluoro-5-methoxy-4′-(trifluoromethyl)-4-biphenylyl)-2-oxo-N-3-pyridazinyl-1,2-dihydro-6-quinolinesulfonamide]		31 nM	
COc1ccc(-c2ccccc2C(F)(F)F)cc1-n1c(=O)ccc2cc(S(=O)(=O)Nc3ccon3)ccc21 [Example 850, N-3-isoxazolyl-1-(4-methoxy-2′-(trifluoromethyl)-3-biphenylyl)-2-oxo-1,2-dihydro-6-quinolinesulfonamide]		141 nM	
COc1cc(-c2cccc(OC(C)C)c2)ccc1-n1c(=O)ccc2cc(S(=O)(=O)Nc3nccc(C)n3)ccc21 (atropisomer, axis not shown; (P)) [Example 1206, (P)-1-(3-methoxy-3′-(1-methylethoxy)-4-biphenylyl)-N-(4-methyl-2-pyrimidinyl)-2-oxo-1,2-dihydro-6-quinolinesulfonamide]	590 nM		
COc1cc(Br)c(F)cc1-n1c(=O)ccc2cc(S(=O)(=O)Nc3cc(OC4CCC4)ncn3)ccc21 (atropisomer, axis not shown; (P)) [Example 1188, (P)-1-(4-bromo-5-fluoro-2-methoxyphenyl)-N-(6-(cyclobutyloxy)-4-pyrimidinyl)-2-oxo-1,2-dihydro-6-quinolinesulfonamide]	10600 nM		
COc1cc(-c2cccc(Cl)c2)c(Cl)cc1-n1c(=O)ccc2cc(S(=O)(=O)Nc3ccon3)ccc21 (atropisomer, axis not shown; (M)) [Example 460, (M)-1-(2,3′-dichloro-5-methoxy-[1,1′-biphenyl]-4-yl)-N-(isoxazol-3-yl)-2-oxo-1,2-dihydroquinoline-6-sulfonamide]	1760 nM		
COCCCOc1nc(OC)c(-n2c(=O)ccc3cc(S(=O)(=O)Nc4ccon4)ccc32)cc1Cl [Example 831, 1-(5-chloro-2-methoxy-6-(3-methoxypropoxy)-3-pyridinyl)-N-3-isoxazolyl-2-oxo-1,2-dihydro-6-quinolinesulfonamide]		3810 nM	
COc1cc(-c2ccc(F)c(C)c2)c(F)cc1-n1c(=O)ccc2cc(S(=O)(=O)Nc3ncc(F)cn3)ccc21 [Example 942, 1-(2,4′-difluoro-5-methoxy-3′-methyl-4-biphenylyl)-N-(5-fluoro-2-pyrimidinyl)-2-oxo-1,2-dihydro-6-quinolinesulfonamide]		31 nM	
COc1cc(-c2cc(F)cc(C(F)(F)F)c2)c(F)cc1-n1c(=O)ccc2cc(S(=O)(=O)Nc3ccon3)ccc21 [Example 711, 1-(2,3′-difluoro-5-methoxy-5′-(trifluoromethyl)-4-biphenylyl)-N-3-isoxazolyl-2-oxo-1,2-dihydro-6-quinolinesulfonamide]		9 nM	
COc1cc(-c2cccc(C)c2C)ccc1-n1c(=O)ccc2cc(S(=O)(=O)Nc3ccon3)ccc21 [Example 1056, N-3-isoxazolyl-1-(3-methoxy-2′,3′-dimethyl-4-biphenylyl)-2-oxo-1,2-dihydro-6-quinolinesulfonamide]			IC50 (in-vitro Nav 1.7 PX data (PatchXpress)): 25 nM
N#CCOc1cc(-c2cccc(F)c2)c(F)cc1-n1c(=O)ccc2cc(S(=O)(=O)Nc3ccon3)ccc21 [Example 387, 1-(5-(cyanomethoxy)-2,3′-difluoro-[1,1′-biphenyl]-4-yl)-N-(isoxazol-3-yl)-2-oxo-1,2-dihydroquinoline-6-sulfonamide]	89 nM		
COc1ccc(-c2ccccc2Cl)cc1-n1c(=O)ccc2cc(S(=O)(=O)Nc3ccon3)ccc21 [Example 842, 1-(2′-chloro-4-methoxy-3-biphenylyl)-N-3-isoxazolyl-2-oxo-1,2-dihydro-6-quinolinesulfonamide]		72 nM	
COc1cc(-c2cccc(C)c2)ccc1-n1c(=O)ccc2cc(S(=O)(=O)Nc3ccnc(C)n3)ccc21 [Example 1132, 1-(3-methoxy-3′-methyl-4-biphenylyl)-N-(2-methyl-4-pyrimidinyl)-2-oxo-1,2-dihydro-6-quinolinesulfonamide]		192 nM	
COc1cc(-c2ccc(C)c(Cl)c2)c(F)cc1-n1c(=O)ccc2cc(S(=O)(=O)Nc3ccon3)c(F)cc21 [Example 979, 1-(3′-chloro-2-fluoro-5-methoxy-4′-methyl-4-biphenylyl)-7-fluoro-N-3-isoxazolyl-2-oxo-1,2-dihydro-6-quinolinesulfonamide]		21 nM	
COc1cc(-c2cc(OC)c(-n3c(=O)ccc4cc(S(=O)(=O)Nc5cccnn5)ccc43)cc2F)ccc1F [Example 1007, 1-(2,4′-difluoro-3′,5-dimethoxy-4-biphenylyl)-2-oxo-N-3-pyridazinyl-1,2-dihydro-6-quinolinesulfonamide]		131 nM	
COc1cc(-c2cc(F)cc(Cl)c2)c(F)cc1-n1c(=O)ccc2cc(S(=O)(=O)Nc3ncon3)ccc21 (atropisomer, axis not shown; (P)) [Example 326, (P)-1-(3′-chloro-2,5′-difluoro-5-methoxy-4-biphenylyl)-N-1,2,4-oxadiazol-3-yl-2-oxo-1,2-dihydro-6-quinolinesulfonamide]	5 nM		
COc1cc(-c2cccc(F)c2)ccc1-n1c(=O)ccc2cc(S(=O)(=O)Nc3ccon3)ccc21 [Example 818, 1-(3′-fluoro-3-methoxy-4-biphenylyl)-N-3-isoxazolyl-2-oxo-1,2-dihydro-6-quinolinesulfonamide]		38 nM	
CCOc1cc(-c2cccc(F)c2)c(F)cc1-n1c(=O)ccc2cc(S(=O)(=O)Nc3ccon3)ccc21 (atropisomer, axis not shown; (P)) [Example 388, (P)-1-(5-ethoxy-2,3′-difluoro-[1,1′-biphenyl]-4-yl)-N-(isoxazol-3-yl)-2-oxo-1,2-dihydroquinoline-6-sulfonamide]	48 nM		
COc1ccc(-c2cncc(C(F)(F)F)c2)cc1-n1c(=O)ccc2cc(S(=O)(=O)Nc3ccon3)ccc21 [Example 492, N-3-isoxazolyl-1-(2-methoxy-5-(5-(trifluoromethyl)-3-pyridinyl)phenyl)-2-oxo-1,2-dihydro-6-quinolinesulfonamide]	298 nM		
COc1cc(Cl)cc(-c2cc(OC)c(-n3c(=O)ccc4cc(S(=O)(=O)Nc5ccon5)ccc43)cc2F)c1 (atropisomer, axis not shown; (P)) [Example 501, (P)-1-(3′-chloro-2-fluoro-5,5′-dimethoxy-4-biphenylyl)-N-3-isoxazolyl-2-oxo-1,2-dihydro-6-quinolinesulfonamide]			IC50 (in-vitro PatchXpress (PX)): 4 nM
COc1cc(-c2cc(OC)c(-n3c(=O)cnc4cc(S(=O)(=O)Nc5ncccn5)ccc43)cc2F)ccc1Cl [Example 1201, 1-(4′-chloro-2-fluoro-3′,5-dimethoxy-4-biphenylyl)-2-oxo-N-2-pyrimidinyl-1,2-dihydro-6-quinoxalinesulfonamide]	110 nM		
COc1cc(-c2cnc(OC)c(Cl)c2)c(F)cc1-n1c(=O)ccc2cc(S(=O)(=O)Nc3ccnc(C)n3)ccc21 (atropisomer, axis not shown; (P)) [Example 1160, (P)-1-(4-(5-chloro-6-methoxy-3-pyridinyl)-5-fluoro-2-methoxyphenyl)-N-(2-methyl-4-pyrimidinyl)-2-oxo-1,2-dihydro-6-quinolinesulfonamide]			IC50 (in-vitro Nav 1.7 PX data, Table 4): 42 nM
COc1ccc(F)c(-c2cc(OC)c(-n3c(=O)ccc4cc(S(=O)(=O)Nc5ncccn5)ccc43)cc2C)c1 [Example 965, 1-(2′-fluoro-5,5′-dimethoxy-2-methyl-4-biphenylyl)-2-oxo-N-2-pyrimidinyl-1,2-dihydro-6-quinolinesulfonamide]		74 nM	
COc1cc(-c2cc(F)cc(F)c2)c(C)cc1-n1c(=O)cc(C)c2cc(S(=O)(=O)Nc3ccon3)ccc21 (atropisomer, axis not shown; (P)) [Example 570, (P)-1-(3′,5′-difluoro-5-methoxy-2-methyl-4-biphenylyl)-N-3-isoxazolyl-4-methyl-2-oxo-1,2-dihydro-6-quinolinesulfonamide]	67 nM		
COc1cc(-c2cc(F)cc(Cl)c2)c(F)cc1-n1c(=O)ccc2cc(S(=O)(=O)Nc3cnsn3)ccc21 [Example 922, 1-(3′-chloro-2,5′-difluoro-5-methoxy-4-biphenylyl)-2-oxo-N-1,2,5-thiadiazol-3-yl-1,2-dihydro-6-quinolinesulfonamide]		4 nM	
COc1ccc(-c2cc(C)cc(Cl)c2)cc1-n1c(=O)ccc2cc(S(=O)(=O)Nc3ccon3)ccc21 [Example 867, 1-(3′-chloro-4-methoxy-5′-methyl-3-biphenylyl)-N-3-isoxazolyl-2-oxo-1,2-dihydro-6-quinolinesulfonamide]		16 nM	
